This assay deals with WM-266-4 xenograft tumors. The assay can be described thus: WM-266-4 human melanoma xenograft model. Type of assay: in vivo. Particulars: WM-266-4 xenograft tumors in female nude mice, staged at 112±6 mg; MEK compound 10 mg/kg PO qd x 14 (AM); rapamycin 5 mg/kg IP qd x 14 (PM); single agents or combination. How it is done:
For subcutaneous or intradermal tumors, the mean tumor weight of each animal in the respective control and treatment groups was determined twice weekly during the study. Tumor weight (TW) was determined by measuring perpendicular diameters with a caliper, using the following formula: tumor weight (mg)=[tumor volume=length (mm)×width^2 (mm^2)]/2.
Percent inhibition of tumor growth (TGI) is determined with the following formula:
[formula] where X0=average TW of all tumors on group day; Xf=TW of treated group on Day f; Yf=TW of vehicle control group on Day f
[formula] TGI is calculated individually for each tumor to obtain a mean±SEM value for each experimental group. Statistical significance is determined using the 2-tailed Student's t-test (significance defined as P<0.05).
The WM-266-4 human melanoma cell line is PTEN-deficient, and harbors a heterozygous activating mutation in the gene encoding B-Raf. Therefore, the ability of a MEK inhibitor administered as monotherapy, and in combination with the mTOR inhibitor rapamycin, was examined to inhibit the growth of WM-266-4 xenograft tumors in nude mice.
Tumors were established in female nude mice and staged when the tumors reached 112±6 mg. […]

Regarding `CO[C@H]1C[C@@H]2CC[C@@H](C)[C@@](O)(O2)C(=O)C(=O)N2CCCC[C@H]2C(=O)O[C@H]([C@H](C)C[C@@H]2CC[C@@H](O)[C@H](OC)C2)CC(=O)[C@H](C)/C=C(\C)[C@@H](O)[C@@H](OC)C(=O)[C@H](C)C[C@H](C)/C=C/C=C/C=C/1C` [Rapamycin, rapamycin], the “TGI (%), tumor growth inhibition” value is recorded as 60%.
